Legend:
Mus musculus [1] = assay: Antinociceptive activity in icv dosed mouse; type: functional
[2] = biological target: T1, Kappa-type opioid receptor (Homo sapiens, UniProt P41145); assay: Binding affinity to kappa opioid receptor (unknown origin)
[3] = biological target: T1, Kappa-type opioid receptor; assay: Inhibition of kappa opioid receptor (unknown origin)
[4] = biological target: T1, Kappa-type opioid receptor; assay: Inhibition of kappa opioid receptor (unknown origin) relative to control
[5] = biological target: Mitogen-activated protein kinase 3 (Homo sapiens, UniProt P27361); assay: Inhibition of ERK1 phosphorylation (unknown origin)
Sequence of Mitogen-activated protein kinase 3 (P27361 whole entry): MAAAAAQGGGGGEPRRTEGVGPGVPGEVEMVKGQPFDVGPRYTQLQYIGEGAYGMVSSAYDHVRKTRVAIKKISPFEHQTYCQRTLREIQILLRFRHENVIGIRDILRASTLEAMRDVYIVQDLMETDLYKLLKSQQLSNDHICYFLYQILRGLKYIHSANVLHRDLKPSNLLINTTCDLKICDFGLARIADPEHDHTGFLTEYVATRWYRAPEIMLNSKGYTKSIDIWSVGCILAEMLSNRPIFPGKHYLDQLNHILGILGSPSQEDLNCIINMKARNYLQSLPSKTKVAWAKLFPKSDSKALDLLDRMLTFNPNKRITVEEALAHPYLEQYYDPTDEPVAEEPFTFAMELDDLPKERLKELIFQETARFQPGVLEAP

[6] = biological target: Mitogen-activated protein kinase 1 (Homo sapiens, UniProt P28482); assay: Inhibition of ERK2 phosphorylation (unknown origin)
Sequence of Mitogen-activated protein kinase 1 (P28482 whole entry): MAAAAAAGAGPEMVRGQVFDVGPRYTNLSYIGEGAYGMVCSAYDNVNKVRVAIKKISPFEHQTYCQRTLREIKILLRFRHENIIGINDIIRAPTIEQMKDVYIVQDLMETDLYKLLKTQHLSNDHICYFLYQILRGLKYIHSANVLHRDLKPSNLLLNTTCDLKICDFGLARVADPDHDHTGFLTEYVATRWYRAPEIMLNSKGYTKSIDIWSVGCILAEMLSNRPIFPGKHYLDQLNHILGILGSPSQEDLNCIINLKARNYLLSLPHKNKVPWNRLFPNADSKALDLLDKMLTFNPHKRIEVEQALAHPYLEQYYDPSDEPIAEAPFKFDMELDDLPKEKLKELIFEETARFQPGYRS

MAP kinase p38 = MAP kinase p38 (Homo sapiens, UniProt O15264+Q15759+Q16539+P53778); assay: Inhibition of p38 phosphorylation (unknown origin); type: protein assay
Mu-type opioid receptor [7] = biological target: T2, Mu-type opioid receptor (Homo sapiens, UniProt P35372); assay: Displacement of [3H]DAMGO from mu opioid receptor (unknown origin) expressed in HEK293 cells after 1 hr by liquid scintillation counting; type: cell-based
T2 sequence (P35372 whole entry): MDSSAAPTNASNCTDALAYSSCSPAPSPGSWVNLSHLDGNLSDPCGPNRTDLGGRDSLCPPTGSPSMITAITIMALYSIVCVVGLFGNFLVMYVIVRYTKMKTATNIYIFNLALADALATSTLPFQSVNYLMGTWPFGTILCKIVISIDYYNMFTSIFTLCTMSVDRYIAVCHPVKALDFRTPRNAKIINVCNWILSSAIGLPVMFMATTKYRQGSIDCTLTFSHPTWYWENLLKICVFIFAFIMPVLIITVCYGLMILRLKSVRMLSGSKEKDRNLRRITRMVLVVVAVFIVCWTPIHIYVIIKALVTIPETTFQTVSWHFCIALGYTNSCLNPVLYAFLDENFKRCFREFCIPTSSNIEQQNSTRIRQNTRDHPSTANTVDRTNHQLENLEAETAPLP

Mu-type opioid receptor [8] = biological target: T2, Mu-type opioid receptor; assay: Inhibition of mu opioid receptor (unknown origin) expressed in HEK293 cells assessed as inhibition of forskolin-stimulated intracellular cAMP accumulation preincubated for 30 mins followed by forskolin-stimulation and measured after 60 mins; type: functional, cell-based
Mu-type opioid receptor [9] = biological target: T2, Mu-type opioid receptor; assay: Inhibition of mu opioid receptor (unknown origin) expressed in HEK293 cells assessed as inhibition of forskolin-stimulated […] preincubated for 30 mins followed by forskolin-stimulation and measured after 60 mins; type: cell-based
Mus musculus [10] = assay: Antinociceptive activity in icv dosed Kunming mouse; type: functional; conditions: central
Mus musculus [11] = assay: Antinociceptive activity in iv dosed Kunming mouse; type: functional
Mu-type opioid receptor [12] = biological target: T2, Mu-type opioid receptor; assay: Inhibition of mu opioid receptor (unknown origin) expressed in human […] cells by [35S]-GTPgammaS binding assay; type: functional, cell-based
Mu-type opioid receptor [13] = biological target: T2, Mu-type opioid receptor; assay: Inhibition of mu opioid receptor (unknown origin) expressed in human […] cells by [35S]-GTPgammaS binding assay relative to control; type: functional, cell-based
[14] = biological target: T3, Delta-type opioid receptor (Homo sapiens, UniProt P41143); assay: Inhibition of delta opioid receptor (unknown origin) expressed in human […] cells by [35S]-GTPgammaS binding assay; type: functional, cell-based
T3 sequence (P41143 whole entry): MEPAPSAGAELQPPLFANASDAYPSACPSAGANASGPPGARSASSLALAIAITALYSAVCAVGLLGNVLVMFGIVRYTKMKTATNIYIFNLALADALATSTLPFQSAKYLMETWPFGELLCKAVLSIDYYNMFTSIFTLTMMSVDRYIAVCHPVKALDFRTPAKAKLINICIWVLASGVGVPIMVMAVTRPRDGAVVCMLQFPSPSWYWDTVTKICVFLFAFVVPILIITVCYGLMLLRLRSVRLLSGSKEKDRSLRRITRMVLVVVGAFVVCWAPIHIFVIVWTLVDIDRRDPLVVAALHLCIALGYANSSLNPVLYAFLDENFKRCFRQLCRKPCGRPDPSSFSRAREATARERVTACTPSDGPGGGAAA

[15] = biological target: T3, Delta-type opioid receptor; assay: Inhibition of delta opioid receptor (unknown origin) expressed in human […] cells by [35S]-GTPgammaS binding assay relative to control; type: functional, cell-based
Mu-type opioid receptor [16] = biological target: T2, Mu-type opioid receptor; assay: Inhibition of mu opioid receptor (unknown origin) expressed in human […] cells assessed as increase in beta arrestin recruitment; type: functional, cell-based
[17] = biological target: T3, Delta-type opioid receptor; assay: Inhibition of delta opioid receptor (unknown origin) expressed in human […] cells assessed as increase in beta arrestin recruitment; type: functional, cell-based
Mu-type opioid receptor [18] = biological target: T2, Mu-type opioid receptor; assay: Inhibition of mu opioid receptor (unknown origin) assessed as increase in beta arrestin recruitment relative to control; type: functional
[19] = biological target: T3, Delta-type opioid receptor; assay: Inhibition of delta opioid receptor (unknown origin) assessed as increase in beta arrestin recruitment relative to control; type: functional
Mu-type opioid receptor [20] = biological target: T4, Mu-type opioid receptor (Cavia porcellus, UniProt P97266); assay: Inhibition of mu opioid receptor in guinea pig brain membranes; type: cell membranes
T4 sequence (P97266 whole entry): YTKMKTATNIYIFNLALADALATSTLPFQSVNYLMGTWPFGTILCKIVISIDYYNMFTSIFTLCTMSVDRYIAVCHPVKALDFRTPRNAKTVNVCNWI

[21] = Inhibition of delta opioid receptor in guinea pig brain membranes; type: cell membranes, Cavia porcellus
[22] = biological target: T5, Kappa-type opioid receptor (Cavia porcellus, UniProt P41144); assay: Inhibition of kappa opioid receptor in guinea pig brain membranes; type: cell membranes
T5 sequence (P41144 whole entry): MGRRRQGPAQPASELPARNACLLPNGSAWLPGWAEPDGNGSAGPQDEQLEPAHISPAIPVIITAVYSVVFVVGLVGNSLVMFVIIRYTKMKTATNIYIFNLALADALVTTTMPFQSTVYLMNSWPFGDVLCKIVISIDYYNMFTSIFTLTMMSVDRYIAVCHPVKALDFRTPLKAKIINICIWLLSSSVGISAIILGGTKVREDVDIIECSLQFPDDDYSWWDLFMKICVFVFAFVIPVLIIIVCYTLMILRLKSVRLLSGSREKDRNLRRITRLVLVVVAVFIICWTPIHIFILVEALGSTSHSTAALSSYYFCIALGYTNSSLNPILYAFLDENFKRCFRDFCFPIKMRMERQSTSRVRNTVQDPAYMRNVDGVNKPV

Mu-type opioid receptor [23] = biological target: T4, Mu-type opioid receptor; assay: Agonist activity at mu opioid receptor in guinea pig brain membranes by [35S]-GTPgammaS binding assay; type: functional, cell membranes
[24] = Agonist activity at delta opioid receptor in guinea pig brain membranes by [35S]-GTPgammaS binding assay; type: cell membranes, Cavia porcellus
[25] = biological target: T5, Kappa-type opioid receptor; assay: Agonist activity at kappa opioid receptor in guinea pig brain membranes by [35S]-GTPgammaS binding assay; type: functional, cell membranes

T1 sequence (P41145 whole entry): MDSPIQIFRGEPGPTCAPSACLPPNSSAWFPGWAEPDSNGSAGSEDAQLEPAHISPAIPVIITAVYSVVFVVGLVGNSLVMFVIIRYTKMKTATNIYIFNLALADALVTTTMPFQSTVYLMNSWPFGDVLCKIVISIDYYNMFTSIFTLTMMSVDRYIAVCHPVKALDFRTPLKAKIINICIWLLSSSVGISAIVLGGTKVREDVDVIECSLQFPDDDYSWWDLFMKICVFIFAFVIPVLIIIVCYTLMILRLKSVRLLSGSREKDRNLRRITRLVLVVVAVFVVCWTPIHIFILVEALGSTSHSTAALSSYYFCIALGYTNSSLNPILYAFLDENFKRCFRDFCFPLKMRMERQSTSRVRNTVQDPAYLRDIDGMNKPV

Oc1cccc(CCN(CCc2ccccc2)CC2CCC2)c1
ED50 (Mus musculus [1]): 3.74 nmol

COC(=O)[C@@H]1C[C@H](OC(=O)Cl)C(=O)[C@H]2[C@@]1(C)CC[C@H]1C(=O)O[C@H](c3ccoc3)C[C@]21C
Kd [2]: 2.1 nM | EC50 [3]: 0.19 nM | Emax [4]: 85%

CN(C(=O)/C=C/c1ccoc1)[C@@H]1CC[C@@]2(O)[C@H]3Cc4ccc(O)c5c4[C@@]2(CCN3CC2CC2)[C@H]1O5 [NALFURAFINE]
EC50 [5]: 0.55 nM | EC50 [6]: 0.55 nM | EC50 (MAP kinase p38): 5.2 nM

C=C(C(N)=O)C(NC(=O)[C@H](Cc1c[nH]c2ccccc12)NC(=O)[C@@H](C)N(C)C(=O)[C@@H](N)Cc1ccc(O)cc1)c1ccco1 (some centres not stated)
EC50 (Mu-type opioid receptor [7]): 1.45 to 39 nM

CN(C)[C@H](CNC(=O)NCCc1ccsc1)Cc1cccc2ccccc12
EC50 (Mu-type opioid receptor [8]): 203 nM | EC50 (Mu-type opioid receptor [9]): 203 nM

C=C(C(N)=O)C(NC(=O)[C@H](Cc1ccccc1)NC(=O)[C@@H](C)N(C)C(=O)[C@@H](N)Cc1ccc(O)cc1)c1ccccc1 (some centres not stated)
EC50 (Mu-type opioid receptor [7]): 4 nM

CN(C)[C@H](CNC(=O)NCCc1cccs1)Cc1cccc2ccccc12
EC50 (Mu-type opioid receptor [8]): 52.4 to 91.1 nM | EC50 (Mu-type opioid receptor [9]): 52.4 to 91.1 nM

C=C(C(N)=O)C(NC(=O)[C@H](Cc1c[nH]c2ccccc12)NC(=O)[C@@H](C)N(C)C(=O)C(N)Cc1c(C)cc(O)cc1C)c1ccco1 (some centres not stated)
EC50 (Mu-type opioid receptor [7]): 0.00177 to 0.00515 nM | Ki (Mu-type opioid receptor [7]): 0.0109 to 0.0511 nM | ED50 (Mus musculus [10]): 0.0152 µmol/kg | ED50 (Mus musculus [11]): 0.000382 µmol/kg

C[C@@H](Cc1ccsc1)NC(=O)NC[C@H](Cc1cccc2ccccc12)N(C)C
EC50 (Mu-type opioid receptor [8]): 456 nM | EC50 (Mu-type opioid receptor [9]): 456 nM

C=C(C(N)=O)C(NC(=O)[C@H](Cc1c[nH]c2ccccc12)NC(=O)[C@@H](C)N(C)C(=O)C(N)Cc1c(C)cc(O)cc1C)c1ccccc1 (some centres not stated)
EC50 (Mu-type opioid receptor [7]): 0.00177 to 0.00515 nM | Ki (Mu-type opioid receptor [7]): 0.0109 to 0.0511 nM

CCOC(=O)C1(CCc2ccccc2)CCN(Cc2ccc(NC(C)=O)cc2)CC1
EC50 (Mu-type opioid receptor [12]): 54 nM | Emax (Mu-type opioid receptor [13]): 168% | EC50 [14]: 54 nM | Emax [15]: 168% | EC50 (Mu-type opioid receptor [16]): 8300 nM | EC50 [17]: 8300 nM | Emax (Mu-type opioid receptor [18]): 1200% | Emax [19]: 1200%

C[C@@H](Cc1ccsc1)NC(=O)NC[C@H](Cc1ccc2ccccc2c1)N(C)C
EC50 (Mu-type opioid receptor [8]): 52.4 to 91.1 nM | EC50 (Mu-type opioid receptor [9]): 52.4 to 91.1 nM

CC[C@@H]1CN2CC[C@@]3(O)C(=Nc4cccc(OC)c43)[C@@H]2C[C@@H]1/C(=C\OC)C(=O)OC
Ki (Mu-type opioid receptor [20]): 7.2 nM | Ki [21]: 60 nM | Ki [22]: > 1000 nM | EC50 (Mu-type opioid receptor [23]): 53 nM | EC50 [24]: 53 nM | EC50 [25]: 53 nM
